Assay results as given in patent publication US20170283404A1, “CRYSTALLINE FORMS OF 2-(4-(4-ETHOXY-6-OXO-1,6-DIHYDROPYRIDIN-3-YL)-2-FLUOROPHENYL)-N-(5-(1,1,1-TRIFLUORO-2-METHYLPROPAN-2-YL)ISOXAZOL-3-YL)ACETAMIDE” (GLAXOSMITHKLINE INTELLECTUAL PROPERTY DEVELOPMENT LIMITED, priority 2014, published 2017).

Test: Drying of crystalline form in vacuum oven (solid-state stability)
Type: physicochemical
Details: vacuum oven at 50° C. with a nitrogen bleed for about 17 hours

change in form by Raman or XRPD after drying: no change in form | change to the water content by TGA after drying: no change to the water content
Compound: CCOc1cc(=O)[nH]cc1-c1ccc(CC(=O)Nc2cc(C(C)(C)C(F)(F)F)on2)c(F)c1 [Compound A—Monohydrate, 2-(4-(4-ethoxy-6-oxo-1,6-dihydropyridin-3-yl)-2-fluorophenyl)-N-(5-(1,1,1-trifluoro-2-methylpropan-2-yl)isoxazol-3-yl)acetamide]
